Assay results taken from US20060094783A1 (Tava Pharmaceutical Industries, Ltd., priority 1990, published 2006).
Where a name gives a salt, the structure may show the parent alone. Each block holds one molecule with its values, some of them ahead of it.

How the values were obtained:
[1] = test system: haloperidol-induced catalepsy in mice; assay: Reversal of haloperidol-induced catalepsy in mice; format: in vivo, mouse; settings: for Score + SE: haloperidol 6 mg/kg s.c., max score 12; for % of control: score vs saline control
Protocol: All drugs were administered i.p. in a volume of 0.2 mL. Two hours later, haloperidol was injected s.c. at a dose of 6 mg/kg in a volume of 0.1-0.2 mL. Motor coordination tests were made at 3 hours after giving haloperidol, that is, 5 hours after administering the presumed protective drugs.
Motor coordination tests and rigidity were quantified according to three different parameters: (a) ability to walk the length of a horizontal rod, 80 cm-long; (b) ability to climb down, face down, a vertical rod, 80 cm-long; (c) duration of immobility in an unnatural sitting posture whereby the abdomen of the mouse is pressed against a “wall.” Full performance as in haloperidol-untreated mice is given the score of 4 in each test, or a total of 12 in all tests. Poor performance is given a score from 1 to 3.

[2] = test system: α-MpT-induced hypokinesia in rats; assay: Reversal of α-MpT-induced hypokinesia in rats; format: in vivo, rat; settings: for Score + SE (total motor activity, 10 hours): α-MpT 100 mg/kg i.p.
Protocol: The drug α-MpT is assumed to inhibit the formation of L-DOPA from tyrosine, and consequently the formation of dopamine itself. Lack of CNS dopamine is expressed as hypoactivity. […] Two hours later they received i.p. α-MpT at a dose of 100 mg/kg in 0.3-0.5 mL. Controls received saline. Following this, motor activity was recorded in a computerized activity cage for the duration of 10 hours.

MAO-B = biological target: T1, MAO-B (Rattus norvegicus, UniProt P19643); assay: Inhibition of MAO activity in vivo, acute treatment, MAO-B; parameters: in a rat brain preparation of MAO; host or cells: rat brain preparation
T1 sequence (P19643 1-520): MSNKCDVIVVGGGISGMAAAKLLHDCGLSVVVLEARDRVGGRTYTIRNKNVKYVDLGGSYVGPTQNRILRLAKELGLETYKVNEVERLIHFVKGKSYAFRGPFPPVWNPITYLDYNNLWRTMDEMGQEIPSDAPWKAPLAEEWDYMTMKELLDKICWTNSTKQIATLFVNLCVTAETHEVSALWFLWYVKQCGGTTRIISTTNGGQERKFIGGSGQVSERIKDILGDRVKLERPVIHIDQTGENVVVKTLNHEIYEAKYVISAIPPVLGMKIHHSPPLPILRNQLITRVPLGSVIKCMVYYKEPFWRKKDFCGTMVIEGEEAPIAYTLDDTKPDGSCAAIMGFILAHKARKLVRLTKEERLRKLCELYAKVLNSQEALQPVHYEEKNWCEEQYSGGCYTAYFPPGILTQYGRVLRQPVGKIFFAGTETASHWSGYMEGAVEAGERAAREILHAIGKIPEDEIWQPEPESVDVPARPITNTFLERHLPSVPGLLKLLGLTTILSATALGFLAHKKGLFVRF

MAO-A = biological target: T2, MAO-A (Rattus norvegicus, UniProt P21396); assay: Inhibition of MAO activity in vivo, acute treatment, MAO-A; settings: rat
T2 construct: MAO activity determined in brain and liver; from tissue; host or cells: brain and liver of male Sprague-Dawley-derived rats
T2 sequence (P21396 1-526): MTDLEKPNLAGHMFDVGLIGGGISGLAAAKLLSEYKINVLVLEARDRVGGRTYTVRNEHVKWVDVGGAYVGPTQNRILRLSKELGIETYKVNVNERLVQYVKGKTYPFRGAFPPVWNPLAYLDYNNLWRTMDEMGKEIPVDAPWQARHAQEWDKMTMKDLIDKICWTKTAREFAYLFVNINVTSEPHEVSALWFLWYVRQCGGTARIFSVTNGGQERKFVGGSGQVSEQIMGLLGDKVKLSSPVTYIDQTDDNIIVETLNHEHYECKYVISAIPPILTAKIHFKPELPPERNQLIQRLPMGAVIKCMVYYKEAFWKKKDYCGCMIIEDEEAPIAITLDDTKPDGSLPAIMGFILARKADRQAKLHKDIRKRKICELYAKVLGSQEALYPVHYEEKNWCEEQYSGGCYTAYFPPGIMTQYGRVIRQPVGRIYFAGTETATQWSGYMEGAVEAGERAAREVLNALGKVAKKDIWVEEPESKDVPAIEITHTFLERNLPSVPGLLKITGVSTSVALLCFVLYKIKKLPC

[3] = test system: cardiovascular effects in animals; settings: cited from earlier work
[4] = test system: maximal electroshock seizures in rats; assay: Maximal electroshock test (MES test) in rats; format: in vivo, rat; settings: p.o., 50 mg/kg
Excerpt: The MES test is a classical model to indicate efficacy for partial and generalized seizures in humans. The agents' mechanism of action is via their ability to prevent the spread of seizures. Some agents, however, that prevent seizure spread have the side effect of lowering seizure threshold. These agents therefore have both proconvulsive and anticonvulsive side effects.

guinea-pig ileum = assay: Antagonism of bethanechol-induced (fixed dose) contractions of guinea-pig ileum; settings: bethanechol 0.8 μM
[5] = test system: neonatal rat cerebellum cell cultures; settings: 0.01 μM + NMDA
Protocol: Procedures: cultures of mechanically dissociated neonatal rat cerebellum. […] The cerebella are then dissociated after 20-25 passages through a sterile 13 gauge, 10 cm long stainless steel needle attached to a 5 ml syringe with an inserted 45 μm pore size nylon sieve. The dissociated cells are centrifuged at 200 g for 5 minutes, the supernatant discarded and the cells resuspended in enriched medium. The cell viability is determined by the trypan blue exclusion test. […] After 4 days in culture, the media are replaced with media containing the desired test compounds. Experiments are done in duplicate and repeated 2 or 3 times. […] Nerve cell survival is evaluated by phase contrast microscopy and trypan blue staining after 24 h.
Values, expressed as the percent of untreated controls, represent the average of 2 experiments run in duplicate for culture experiments, and the mean±SEM of 4 animals for ischemia. The percent protection value is the effect of the test compound after subtraction of the solvent effect.

[6] = Appearance of PAI salts under destructive conditions; format: physicochemical
Protocol: Comparative stability studies were carried out under sets of several accelerating conditions: I) heating at 80° C. for 72, 96 or 144 hours; and II) reflux in isopropanol for 30 hours. The degradation products developed were measured by HPLC and confirmed by TLC. The results are presented in Table 9 with the relative retention time (relative to the PAI peak; RRT) as an area percentage relative to ? integrated peak area.
The salts were submitted to visual inspection of color an form.

[7] = Physicochemical properties of PAI salts; settings: for pH: 1% aqueous solution of the PAI salt
Protocol: The melting range was measured with an automatic apparatus (Mettler FP 80) and thermo-gravimetric analysis was performed on a Mettler TA 3000 system at a rate of 10° C./min in the applicable range. […] The pH was measured in a 1% aqueous solution of the PAI salts.

Molecule: C#CCNC1CCc2ccccc21 (racemic) [Rac PAI Mesylate]
Score + SE ([1]; 3.0 mg/kg i.p. (free base)): 5.9 ± 0.7 | % of control ([1]; 3.0 mg/kg i.p.): 49% | protection against haloperidol (in words) ([1]; 5 mg/kg): not active | Score + SE ([1]; 5.0 mg/kg i.p. (free base)): 6.4 ± 0.4 | % of control ([1]; 5.0 mg/kg i.p.): 53% | Score + SE ([1]; 10 mg/kg i.p. (free base)): 9.2 ± 0.6 | % of control ([1]; 10 mg/kg i.p.): 77% | Score + SE ([1]; 15 mg/kg i.p. (free base)): 8.8 ± 0.8 | % of control ([1]; 15 mg/kg i.p.): 73% | restoration of motor activity (in words) ([2]; 2 mg/kg): not active | % of control ([2]; 2 mg/kg i.p., vs saline control): 57% | Score + SE (total motor activity, 10 hours) ([2]; 2 mg/kg i.p.): 9,035 ± 829 | Score + SE (total motor activity, 10 hours) ([2]; 5 mg/kg i.p.): 10,926 ± 820 | Score + SE (total motor activity, 10 hours) ([2]; […] i.p.): 9,698 ± 557

Molecule: C#CCNC1CCc2ccccc21 (racemic) [Rac, N-propargyl-1-aminoindan]
IC-50 MAO-B (MAO-B; I.P., brain, 1 h after dose): 0.22 mg/kg | IC-50 MAO-B (MAO-B; I.P., liver, 1 h after dose): 0.11 mg/kg | IC-50 MAO-B (MAO-B; P.O., liver, 2 h after dose): 0.09 mg/kg | IC-50 MAO-A (MAO-A; I.P., liver, 1 h after dose): 5 mg/kg | IC-50 MAO-A (MAO-A; P.O., brain, 2 h after dose): >5 mg/kg | IC-50 MAO-A (MAO-A; P.O., liver, 2 h after dose): >5 mg/kg | blood pressure ([3]; comparative animal tests): does not increase blood pressure | tachycardia ([3]; comparative animal tests): no significant tachycardia

Molecule: C#CCNC1CCc2ccccc21.Cl (racemic) [racemic PAI.HCl, Racemic N-propargyl-1-aminoindan hydrochloride]
potentiation of the cardiovascular effects of tyramine ([3]; Finberg et al.): does not potentiate

Molecule: C#CCN[C@@H]1CCc2ccccc21.Cl [(R)-PAI HCl, R-(+)-N-Propargyl-1-aminoindan hydrochloride]
animals protected from seizures [4]: three out of four | Percent relaxation (guinea-pig ileum; PAI concentration 20 μM): 25 | Percent relaxation (guinea-pig ileum; PAI concentration 60 μM): 25-50 | Percent relaxation (guinea-pig ileum; PAI concentration 100 μM): 50-70 | Percent relaxation (guinea-pig ileum; PAI concentration 300 μM): 100

Molecule: NCCCNCCCCNCCCN [Spermine, reference compound]
Surviving Cells (percent of untreated controls) [5]: 75 | Percent Protection ([5]; after subtraction of solvent effect): 65

appearance: color ([6]; 80° C./72 h): white | appearance: form ([6]; 80° C./72 h): powder | appearance: color ([6]; 80° C./144 h): white | appearance: form ([6]; 80° C./144 h): powder | appearance: color ([6]; reflux in iPrOH/30 h): off white | appearance: form ([6]; reflux in iPrOH/30 h): powder
Molecule: Cl [chloride]

Molecule: C#CCN[C@@H]1CCc2ccccc21.CCS(=O)(=O)O [esylate]
appearance: color ([6]; 80° C./72 h): brownish | appearance: form ([6]; 80° C./72 h): melted | appearance: color ([6]; 80° C./144 h): dark brown | appearance: form ([6]; 80° C./144 h): melted | appearance: color ([6]; reflux in iPrOH/30 h): dark brown | appearance: form ([6]; reflux in iPrOH/30 h): melted | pH [7]: 2.4

Molecule: C#CCN[C@@H]1CCc2ccccc21.C#CCN[C@@H]1CCc2ccccc21.O=S(=O)(O)O [sulphate]
appearance: color ([6]; 80° C./72 h): off white | appearance: form ([6]; 80° C./72 h): powder | appearance: color ([6]; 80° C./144 h): off white | appearance: form ([6]; 80° C./144 h): powder | appearance: color ([6]; reflux in iPrOH/30 h): brown | appearance: form ([6]; reflux in iPrOH/30 h): powder | pH [7]: 3.9 | % Wt. loss ([7]; thermo-gravimetric analysis, 10° C./min): 3.2%

appearance: color ([6]; 80° C./72 h): brown | appearance: form ([6]; 80° C./72 h): melted | appearance: color ([6]; 80° C./96 h): brown | appearance: color ([6]; reflux in iPrOH/30 h): brown | appearance: form ([6]; reflux in iPrOH/30 h): melted
Molecule: maleate

Molecule: phosphate
appearance: color ([6]; 80° C./72 h): brownish | appearance: form ([6]; 80° C./72 h): powder | appearance: color ([6]; 80° C./144 h): brown | appearance: form ([6]; 80° C./144 h): powder | appearance: color ([6]; reflux in iPrOH/30 h): brown | appearance: form ([6]; reflux in iPrOH/30 h): powder | pH [7]: 7.0
